From patent US6706740B2, “Fungicidal heterocyclic aromatic amides and their compositions, methods of use and preparation” (Dow AgroSciences LLC, priority 1999, dated 2004)

These molecules were tested on Magnaporthe grisea (Pyricularia oryzae—PYRIOR) (assay: microbe, parasite or virus in culture). Settings: Pyricularia oryzae, read-out: PYRIOR in vitro Growth Inhibition.
Format: cell-based

SMILES	inhibition at 25 ppm [%]
COc1ccnc(C(=O)NC2C3CC4C(C3Cl)C42)c1O (centres unmarked) [Compound 304]	< 80
COc1ccnc(C(=O)NC2C3CSC2CN(Cc2ccccc2)C3)c1O (centres unmarked) [Compound 325]	< 80
COc1ccnc(C(=O)N[C@H]2CO[C@@H](C(C)Cc3ccc(C(C)(C)C)cc3)OC2)c1O (some centres unmarked) [Compound 317]	< 80
C[C@H](NC(=O)c1ncccc1O)c1cccc2ccccc12 [Compound 232]	> 80

The molecules below were run on Rhizoctonia solani (RHIZSO) (assay: microbe, parasite or virus in culture). Settings: Rhizoctonia solani, read-out: RHIZSO in vitro Growth Inhibition.
Format: cell-based

SMILES	inhibition at 25 ppm [%]
COc1ccnc(C(=O)NC2C3CC4C(C3Cl)C42)c1O (centres unmarked) [Compound 304]	> 80
COc1ccnc(C(=O)NC2C3CSC2CN(Cc2ccccc2)C3)c1O (centres unmarked) [Compound 325]	< 80
COc1ccnc(C(=O)N[C@H]2CO[C@@H](C(C)Cc3ccc(C(C)(C)C)cc3)OC2)c1O (some centres unmarked) [Compound 317]	< 80
C[C@H](NC(=O)c1ncccc1O)c1cccc2ccccc12 [Compound 232]	< 80

These molecules were tested on Mycosphaerella graminicola (Septoria tritici—SEPTTR) (assay: In vitro fungal growth inhibition, Mycosphaerella graminicola (SEPTTR)). Settings: Zymoseptoria tritici; 25 ppm in growth medium; read-out: SEPTTR in vitro Growth Inhibition.
Format: cell-based

SMILES	inhibition at 25 ppm [%]
COc1ccnc(C(=O)NC2C3CC4C(C3Cl)C42)c1O (centres unmarked) [Compound 304]	< 80
COc1ccnc(C(=O)NC2C3CSC2CN(Cc2ccccc2)C3)c1O (centres unmarked) [Compound 325]	< 80
COc1ccnc(C(=O)N[C@H]2CO[C@@H](C(C)Cc3ccc(C(C)(C)C)cc3)OC2)c1O (some centres unmarked) [Compound 317]	< 80
C[C@H](NC(=O)c1ncccc1O)c1cccc2ccccc12 [Compound 232]	> 80

These molecules were tested on Stagonospora nodorum (Leptosphaeria nodorum—LEPTNO) (assay: In vitro fungal growth inhibition, Stagonospora nodorum (LEPTNO)). Settings: Leptosphaeria; 25 ppm in growth medium; read-out: LEPTNO in vitro Growth Inhibition.
Format: cell-based

SMILES	inhibition at 25 ppm [%]
COc1ccnc(C(=O)NC2C3CC4C(C3Cl)C42)c1O (centres unmarked) [Compound 304]	< 80
COc1ccnc(C(=O)NC2C3CSC2CN(Cc2ccccc2)C3)c1O (centres unmarked) [Compound 325]	< 80
COc1ccnc(C(=O)N[C@H]2CO[C@@H](C(C)Cc3ccc(C(C)(C)C)cc3)OC2)c1O (some centres unmarked) [Compound 317]	< 80
C[C@H](NC(=O)c1ncccc1O)c1cccc2ccccc12 [Compound 232]	< 80

Each molecule was assayed on Ustilago maydis (USTIMA) (assay: microbe, parasite or virus in culture). Settings: Mycosarcoma maydis, read-out: USTIMA in vitro Growth Inhibition.
Format: cell-based

SMILES	inhibition at 25 ppm [%]
COc1ccnc(C(=O)NC2C3CC4C(C3Cl)C42)c1O (centres unmarked) [Compound 304]	< 80
COc1ccnc(C(=O)NC2C3CSC2CN(Cc2ccccc2)C3)c1O (centres unmarked) [Compound 325]	< 80
COc1ccnc(C(=O)N[C@H]2CO[C@@H](C(C)Cc3ccc(C(C)(C)C)cc3)OC2)c1O (some centres unmarked) [Compound 317]	< 80
C[C@H](NC(=O)c1ncccc1O)c1cccc2ccccc12 [Compound 232]	< 80

What follows are molecules tested on Phytophthora infestans (PHYTIN) (assay: microbe, parasite or virus in culture). Settings: Phytophthora infestans, read-out: PHYTIN in vitro Growth Inhibition.
Format: cell-based

SMILES	inhibition at 25 ppm [%]
COc1ccnc(C(=O)NC2C3CC4C(C3Cl)C42)c1O (centres unmarked) [Compound 304]	< 80
COc1ccnc(C(=O)NC2C3CSC2CN(Cc2ccccc2)C3)c1O (centres unmarked) [Compound 325]	< 80
COc1ccnc(C(=O)N[C@H]2CO[C@@H](C(C)Cc3ccc(C(C)(C)C)cc3)OC2)c1O (some centres unmarked) [Compound 317]	< 80
C[C@H](NC(=O)c1ncccc1O)c1cccc2ccccc12 [Compound 232]	< 80

The molecules below were run on Phytophthora infestans—PHYTIN (assay: whole plant or invertebrate). Settings: Phytophthora, in Solanum lycopersicum, 24 h, read-out: PHYTIN in vivo 1 Day Protectant.
Format: in vivo

SMILES	pest or weed control at 100 ppm [%]
COc1ccnc(C(=O)NC2C3CC4C(C3Cl)C42)c1O (centres unmarked) [Compound 304]	< 25
COc1ccnc(C(=O)NC2C3CSC2CN(Cc2ccccc2)C3)c1O (centres unmarked) [Compound 325]	< 25
COc1ccnc(C(=O)N[C@H]2CO[C@@H](C(C)Cc3ccc(C(C)(C)C)cc3)OC2)c1O (some centres unmarked) [Compound 317]	25 to 74
C[C@H](NC(=O)c1ncccc1O)c1cccc2ccccc12 [Compound 232]	< 25

What follows are molecules tested on Puccinia recondita—PUCCRT (assay: Brown Rust of Wheat, in vivo whole plant, 24 Hour Protectant). Settings: 100 ppm spray, 24 hour protectant, wheat; control of fungal infection vs untreated plants.

SMILES	PUCCRT in vivo 1 Day Protectant
COc1ccnc(C(=O)N[C@H]2CO[C@@H](C(C)Cc3ccc(C(C)(C)C)cc3)OC2)c1O (some centres unmarked) [Compound 317]	+ +

Same assay, conditions: Puccinia; 100 ppm spray, 24 hour protectant, wheat; control of fungal infection vs untreated plants; read-out: PUCCRT in vivo 1 Day Protectant

SMILES	pest or weed control at 100 ppm [%]
COc1ccnc(C(=O)NC2C3CC4C(C3Cl)C42)c1O (centres unmarked) [Compound 304]	< 25
COc1ccnc(C(=O)NC2C3CSC2CN(Cc2ccccc2)C3)c1O (centres unmarked) [Compound 325]	< 25
C[C@H](NC(=O)c1ncccc1O)c1cccc2ccccc12 [Compound 232]	< 25

These molecules were tested on Erysiphe graminis—ERYSGT (assay: Powdery Mildew of Wheat, in vivo whole plant, 24 Hour Protectant). Settings: Erysiphe; 100 ppm spray, 24 hour protectant, wheat; control of fungal infection vs untreated plants; read-out: ERYSGT in vivo 1 Day Protectant.

SMILES	pest or weed control at 100 ppm [%]
COc1ccnc(C(=O)NC2C3CC4C(C3Cl)C42)c1O (centres unmarked) [Compound 304]	< 25
COc1ccnc(C(=O)NC2C3CSC2CN(Cc2ccccc2)C3)c1O (centres unmarked) [Compound 325]	< 25
COc1ccnc(C(=O)N[C@H]2CO[C@@H](C(C)Cc3ccc(C(C)(C)C)cc3)OC2)c1O (some centres unmarked) [Compound 317]	< 25
C[C@H](NC(=O)c1ncccc1O)c1cccc2ccccc12 [Compound 232]	25 to 74

Each molecule was assayed on Septoria tritici—SEPTTR (assay: Leaf Blotch of Wheat, in vivo whole plant, 24 Hour Protectant). Settings: 100 ppm spray, 24 hour protectant, wheat; control of fungal infection vs untreated plants.

SMILES	SEPTTR in vivo 1 Day Protectant
COc1ccnc(C(=O)NC2C3CC4C(C3Cl)C42)c1O (centres unmarked) [Compound 304]	+ +

Same assay, conditions: Zymoseptoria tritici, 24 h, 100 ppm spray, 24 hour protectant, wheat; control of fungal infection vs untreated plants; read-out: SEPTTR in vivo 1 Day Protectant

SMILES	pest or weed control at 100 ppm [%]
COc1ccnc(C(=O)NC2C3CSC2CN(Cc2ccccc2)C3)c1O (centres unmarked) [Compound 325]	< 25
COc1ccnc(C(=O)N[C@H]2CO[C@@H](C(C)Cc3ccc(C(C)(C)C)cc3)OC2)c1O (some centres unmarked) [Compound 317]	< 25
C[C@H](NC(=O)c1ncccc1O)c1cccc2ccccc12 [Compound 232]	< 25

The molecules below were run on Leptosphaeria nodorum—LEPTNO (assay: Glume Blotch of Wheat, in vivo whole plant, 24 Hour Protectant). Settings: Leptosphaeria; 100 ppm spray, 24 hour protectant, wheat; control of fungal infection vs untreated plants; read-out: LEPTNO in vivo 1 Day Protectant.

SMILES	pest or weed control at 100 ppm [%]
COc1ccnc(C(=O)NC2C3CC4C(C3Cl)C42)c1O (centres unmarked) [Compound 304]	25 to 74
COc1ccnc(C(=O)NC2C3CSC2CN(Cc2ccccc2)C3)c1O (centres unmarked) [Compound 325]	25 to 74
COc1ccnc(C(=O)N[C@H]2CO[C@@H](C(C)Cc3ccc(C(C)(C)C)cc3)OC2)c1O (some centres unmarked) [Compound 317]	< 25
C[C@H](NC(=O)c1ncccc1O)c1cccc2ccccc12 [Compound 232]	< 25
